Test results: paper PMC10368966, “Safety and efficacy of AK0529 in respiratory syncytial virus‐infected infant patients: A phase 2 proof‐of‐concept trial” (Influenza and Other Respiratory Viruses, 2023)
Like-named read-outs stand apart in the source and are kept apart here.

Legend:
[1] = Phase 2 study: population pharmacokinetics of plasma concentrations; format: in vivo, human (infants); conditions: for Tmax / AUC(0-t) / Cmax / AUC(0-inf) / half-life: human, plasma; for Cmax: read-out: Cmax mean (CV %); for AUC(0-inf): read-out: AUC0–∞ mean (CV %); for half-life: read-out: t½ mean (CV %) (converted)
Protocol: Individual plasma concentrations of the active drug were measured, and PK were determined using nonlinear mixed‐effect models. In all cases, when new data were available, the updated model was used for evaluation under the assumption of an allometric coefficient of 0.75 and incorporation of CYP maturation. Using a Population PK (Pop‐PK) analysis approach, AUC0–∞, clearance (CL/F), volume of distribution (Vc/F), and other PK parameters were estimated for AK0529. Maximum plasma concentration (Cmax) was computed from the predicted profiles.
Clinical safety and tolerability were assessed on the safety population, comprising all subjects who received ≥1 dose of study drug. Clinical variables were evaluated in the full analysis population, which included all subjects who received a dose of study drug and for whom ≥1 post‐treatment assessment was available. Pharmacokinetic analysis was performed on those subjects in the safety population for whom both pre‐ and post‐dose samples were available.

[2] = tested on: clinical RSV isolates (31 A-subtypes and 29 B-subtypes); assay: Cytopathic and plaque reduction assays against clinical RSV isolates; format: cell-based
Protocol: AK0529 (ziresovir) is a potent, selective, and orally bioavailable RSV F protein inhibitor.[9]
The EC90 value was determined in the presence of the known plasma protein binding in the CPE assay. […] To achieve a target efficacious concentration in humans, it was expected that a minimum target of 5 × EC90 value, or approximately 40 ng/mL should be attained. To maintain the effectiveness, this target Ctrough level was required to be achieved across the dosing interval.

[3] = tested on: clinical RSV isolates (31 A-subtypes and 29 B-subtypes); set-up: method as in PMID 31194544; conditions: all clinical RSV isolates (31 A-subtypes and 29 B-subtypes) ref 9; cited from earlier work
[4] = tested on: recombinant RSV T400I variant; assay: Resistance test with recombinant RSV T400I variant
[5] = Part 1, single oral dose 0.5 mg/kg
[6] = Part 1, single oral dose 1.0 mg/kg
[7] = Part 1, single oral dose 2.0 mg/kg
[8] = Part 1, single oral dose 4.0 mg/kg

Question: Which results are given for `Cc1ccc2nc(N3CCS(=O)(=O)c4ccccc4C3)nc(NCC3(N)COC3)c2c1` [AK0529, ziresovir]?
Answer: elimination half-life in subjects aged <6 months ([1]; Part 1, compared with older subjects): slightly longer; time to reach Cmax ([1]; Part 1, single doses except 4 mg/kg): around 4 h; change in AUC with dose ([1]; Part 1, single doses up to 4 mg/kg, no apparent plateau): dose‐dependent increase; targeted drug exposure ([1]; Part 2, 2 mg/kg bid): reached; dose proportionality of mean Cmax and AUCτ ([1]; Part 2, across the dose range tested): approximate dose proportionality; increase in AUCτ from Days 1 to 5 (accumulation) ([1]; Part 2, bid dosing): approximately 1.5 fold; median trough ([1]; Part 2, bid dosing): 12 h; Tmax ([1]; oral, Part 2, Days 1 and 5, read-out: median tmax): 2.5 to 3.8 h; AUC(0-t) ([1]; oral, Part 1, single doses up to 4 mg/kg, read-out: AUC0–24): ≤ 7780 ng·h/mL; Tmax ([1]; po, 0.5 mg/kg, Part 1, single oral dose 0.5 mg/kg, read-out: tmax median (range)): 4.5 h; Tmax ([1]; po, 1 mg/kg, Part 1, single oral dose 1.0 mg/kg, read-out: tmax median (range)): 4.3 h; Tmax ([1]; po, 2 mg/kg, Part 1, single oral dose 2.0 mg/kg, read-out: tmax median (range)): 3.3 h; Tmax ([1]; po, 4 mg/kg, Part 1, single oral dose 4.0 mg/kg, read-out: tmax median (range)): ~2 h; Cmax ([1]; Part 1, single oral dose 0.5 mg/kg, N 4, all younger than 6 months): 158 ng/mL; AUC(0-t) ([1]; Part 1, single oral dose 0.5 mg/kg, read-out: AUC0–24 mean (CV %)): 1770 ng·h/mL; AUC(0-inf) [1, 5]: 2060 ng·h/mL; half-life [1, 5]: 7.7 h; Cmax ([1]; Part 1, single oral dose 1.0 mg/kg, N 6): 302 ng/mL; AUC(0-t) ([1]; Part 1, single oral dose 1.0 mg/kg, read-out: AUC0–24 mean (CV %)): 2890 ng·h/mL; AUC(0-inf) [1, 6]: 3150 ng·h/mL; half-life [1, 6]: 5.7 h; Cmax ([1]; Part 1, single oral dose 2.0 mg/kg, N 4): 375 ng/mL; AUC(0-t) ([1]; Part 1, single oral dose 2.0 mg/kg, read-out: AUC0–24 mean (CV %)): 3790 ng·h/mL; AUC(0-inf) [1, 7]: 4200 ng·h/mL; half-life [1, 7]: 6.2 h; Cmax ([1]; Part 1, single oral dose 4.0 mg/kg, N 3 incl. one subject of Study AK0529-1002): 888 ng/mL; AUC(0-t) ([1]; Part 1, single oral dose 4.0 mg/kg, read-out: AUC0–24 mean (CV %)): 7780 ng·h/mL; AUC(0-inf) [1, 8]: 8280 ng·h/mL; half-life [1, 8]: 6 h; potency against various RSV clinical isolates compared with laboratory strains [2]: remained the same; antiviral activity EC90 [3]: nanomolar concentrations; susceptibility of recombinant RSV T400I variant [4]: resistance
